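48-hour exposure; five concentrations; linearly interpolated endpoints. GI50 = concentration required for 50% inhibition of growth. At the TGI there is no net growth.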 Some results are limits rather than exact numbers.

The record followed here is PubChem BioAssay (NCI).

Some test systems named below: BT-549 breast; MCF7 breast; PC-3 prostate; MDA-N.
Holding throughout (assay): NCI-60 cell line screen, 48 h

On to `CN1C(NC(=O)c2ccc(Cl)nc2)=NS(=O)(=O)c2cc(Cl)ccc21`, for which the GI50 in the experiment with BT-549 breast, in the experiment with MCF7 breast and in the experiment on PC-3 prostate was more than 100 µM in each case. The TGI in the experiment with BT-549 breast, in the experiment on MCF7 breast and in the experiment on PC-3 prostate was more than 100 µM in each case.

For the compound `C=C1C(=O)O[C@H]2[C@H]1CC/C(COC(=O)/C=C\C(=O)NCc1ccc(Cn3c(=O)sn(-c4ccc(C#N)cc4)c3=O)cc1)=C\CC[C@@]1(C)O[C@@H]21`, in the experiment with BT-549 breast, the GI50 is 0.697 µM and the TGI was determined as 1.65 µM. In the experiment on PC-3 prostate, the GI50 was 0.611 µM and the TGI was determined as 1.44 µM.

On to `Cc1c2c(nn1-c1ccc(S(=O)(=O)/N=C3\SCC(=O)N3C(=O)c3ccccc3)cc1)-c1ccccc1CC2`, for which, in the experiment on BT-549 breast, the GI50 was 38.6 µM and the TGI was 92.9 µM. In the experiment with PC-3 prostate, the GI50 was 42.1 µM and the TGI was more than 100 µM.

Consider `COc1ccc(-c2nc(-c3nc4ccc(C)cc4[nH]3)c3ccccn23)cc1`, for which the figures for the GI50 in the experiment with BT-549 breast, in the experiment on MCF7 breast and with PC-3 prostate were 2.55 µM, 2.7 µM and 1.88 µM, respectively. Also, the figures for the TGI with BT-549 breast, in the experiment with MCF7 breast and with PC-3 prostate were 6.36 µM, more than 100 µM and 7.68 µM, respectively.

In the case of `C[C@]12CC[C@@H]3c4ccc(Oc5nc(N6CC6)nc(N6CC6)n5)cc4CC[C@H]3[C@@H]1CCC2=O`, the results for the GI50 with BT-549 breast, with MCF7 breast and with PC-3 prostate were 5.92 µM, 2.78 µM and 3.46 µM, respectively. Moreover, the results for the TGI in the experiment on BT-549 breast, with MCF7 breast and in the experiment with PC-3 prostate were 25.3 µM, 14.7 µM and 21.8 µM, respectively.

Regarding `CC(C)(C)C1=CC(=CC=C2C=CN(CCCCCCCCCCCO)C=C2)C=C(C(C)(C)C)C1=O`, the TGI was 4.44 µM in the experiment with BT-549 breast, 1.23 µM in the experiment with MCF7 breast, 3.04 µM in the experiment on MDA-N and 3.68 µM in the experiment with PC-3 prostate.

In the case of `Cc1[nH]c(N=Nc2ccccc2)nc1N=Nc1ccccc1`, the GI50 was 2.08 µM with BT-549 breast, 2.73 µM in the experiment on MCF7 breast and 4.99 µM in the experiment on PC-3 prostate. For the same compound, the TGI in the experiment on BT-549 breast was 8.11 µM; with MCF7 breast, 15.3 µM; in the experiment on PC-3 prostate, more than 51.6 µM.

As to `Cn1cc(-c2csc(-c3cccc(F)c3)n2)c2cccnc21`, the figures for the GI50 in the experiment on BT-549 breast, with MCF7 breast and in the experiment on PC-3 prostate were 20.9 µM, 17.9 µM and 16.2 µM, respectively. Moreover, the TGI in the experiment on BT-549 breast worked out at 56.1 µM; in the experiment on MCF7 breast, 43.4 µM; with PC-3 prostate it was 39.5 µM.

In the case of `CC12CCCC(CC(=O)c3[nH]c4ccccc4c31)C2` (stereo not given), the figures for the GI50 in the experiment with BT-549 breast, in the experiment on MCF7 breast and with PC-3 prostate were 0.624 µM, 0.4 µM and 0.698 µM, respectively. The TGI in the experiment with BT-549 breast was 12.8 µM; in the experiment on MCF7 breast, more than 56.7 µM; in the experiment on PC-3 prostate, more than 100 µM.

Consider `CCCCC/C=C/C/C=C/CCCCCCCC1=NC(C)(C)CN1C(C)C`, for which the GI50 in the experiment on BT-549 breast is 5.84 µM; in the experiment on MCF7 breast it was 1.54 µM; in the experiment on PC-3 prostate, 1.7 µM. In addition, the TGI is 23 µM with BT-549 breast, 2.87 µM with MCF7 breast and 3.41 µM with PC-3 prostate.

As to `COc1ccc(C2CC(=O)c3c(OC)cc(OC)cc3O2)cc1` (stereo not given), the GI50 in the experiment with BT-549 breast, in the experiment with MCF7 breast and in the experiment on PC-3 prostate was more than 100 µM in each case. For the same compound, the TGI with BT-549 breast, with MCF7 breast and with PC-3 prostate was more than 100 µM in each case.

On to `C[C@]12CC[C@@H]3c4ccc(O)cc4C[C@@H](CCCCCCCCCS(=O)CCCC(F)(F)C(F)(F)F)[C@H]3[C@@H]1CC[C@@H]2O` (stereo not given in full), for which the figures for the GI50 in the experiment on BT-549 breast and with PC-3 prostate were more than 49.9 µM and more than 100 µM, respectively. Also, the TGI in the experiment with BT-549 breast, in the experiment with MCF7 breast and with PC-3 prostate was more than 100 µM in each case.

Take `COc1cc([N+](=O)[O-])ccc1NC(=O)C(F)(F)F`: the TGI with BT-549 breast, with MCF7 breast, in the experiment on MDA-N and in the experiment on PC-3 prostate was more than 100 µM in each case.

With `NCCCCn1c2c(c3ccccc3c1=O)C(=O)c1ccccc1-2`, the GI50 in the experiment on BT-549 breast is 0.754 µM; with MCF7 breast, less than 0.0359 µM; in the experiment with PC-3 prostate, 0.193 µM. For the same compound, the figures for the TGI with BT-549 breast and with PC-3 prostate were 2.5 µM and 2.16 µM, respectively.

On to `O=C(CCCSc1nc(-c2ccc(Cl)cc2)cc(-c2ccc(Cl)cc2)n1)NO`, for which the figures for the GI50 in the experiment on BT-549 breast, in the experiment on MCF7 breast and in the experiment on PC-3 prostate were 3.21 µM, 1.23 µM and 1.21 µM, respectively. Further, the TGI in the experiment with BT-549 breast was 18.6 µM; in the experiment on MCF7 breast it was 12.4 µM; in the experiment with PC-3 prostate it was 16.1 µM.

As for `COc1cc2c3c(n(CCCCl)c(=O)c2cc1OC)-c1ccccc1C3=O`, the GI50 is more than 100 µM in the experiment with BT-549 breast, 8.9 µM in the experiment on MCF7 breast and more than 100 µM in the experiment on PC-3 prostate. Also, the TGI in the experiment on BT-549 breast, with MCF7 breast and with PC-3 prostate was more than 100 µM throughout.

Take `COc1cc2c3c(n(CCCBr)c(=O)c2cc1OC)-c1ccc(NC(C)=O)cc1C3=O`: the GI50 is 8 µM in the experiment on BT-549 breast, 1.82 µM with MCF7 breast and 24.8 µM in the experiment with PC-3 prostate. In addition, the TGI is 34.7 µM in the experiment with BT-549 breast, more than 100 µM in the experiment with MCF7 breast and more than 100 µM with PC-3 prostate.

For the compound `COc1ccc2cc(C(=O)/C=C/c3cccc(OC)c3OC)ccc2c1`, the GI50 with BT-549 breast was 20.6 µM; with MCF7 breast, 0.455 µM; with PC-3 prostate, 17.4 µM. In addition, the TGI was 63.1 µM in the experiment on BT-549 breast, 22.9 µM with MCF7 breast and 46.1 µM in the experiment with PC-3 prostate.

On to `COc1ccc(OC(=O)O[C@H]2[C@H](O[C@H]3[C@@H](O)COC(O[C@H]4C[C@H]5[C@@H]6CC=C7C[C@@H](O)CC[C@]7(C)[C@H]6CC[C@]5(C)[C@H]4[C@H](C)C(=O)CCC(C)C)[C@@H]3OC(C)=O)OC[C@@H](O)[C@@H]2O)cc1` (stereo not given in full), for which the results for the GI50 with BT-549 breast, in the experiment with MCF7 breast and in the experiment with PC-3 prostate were 0.0185 µM, 0.0782 µM and 0.0103 µM, respectively. The TGI turned out to be 15.2 µM in the experiment with BT-549 breast, 12.8 µM with MCF7 breast and 10.1 µM in the experiment on PC-3 prostate.

As for `CC[C@H](C)[C@H](NC(=O)[C@H]1CCCCN1C)C(=O)N(C)[C@H](CCc1nc(C(=O)N[C@@H](Cc2ccccc2)C[C@H](C)C(=O)OC)cs1)C(C)C`, the GI50 with BT-549 breast was 0.177 µM; in the experiment on MCF7 breast, 0.0648 µM; in the experiment on PC-3 prostate it was 0.375 µM. Moreover, the values for the TGI in the experiment on BT-549 breast, with MCF7 breast and in the experiment with PC-3 prostate were 2.48 µM, more than 25 µM and more than 25 µM, respectively.
